From patent publication US12605453B2, “CP2C-targeting peptide-based anticancer agent” (Industry-University Cooperation Foundation Hanyang …, priority 2019, dated 2026)
Where a SMILES comes first, the peptide text is derived from it.

How the values were obtained:
[1] = Degradation in mouse blood samples after tail vein injection, HPLC; format: in vivo
Experimental: (§2) The ACP52C half-life in the solution containing serum was analyzed by HPLC (model: UHPLC DIONEX Ultimate 3000; Flow=1.000 ml/min) after incubation of ACP52C in the solution containing 10% serum for various times and then removing serum proteins with Centricon (Mw10,000) before HPLC analysis. […] Meanwhile, after injecting ACP52C into the mouse via tail vein, blood samples were extracted over time and the degree of ACP52C degradation in the blood samples was analyzed by HPLC.

cell cycle (G2/M, subG1) = assay: FACS cell cycle analysis after cell cycle synchronization; format: cell-based
Text: The growth inhibitory and cell death-inducing efficacy of ACP52C was confirmed by FACS analysis by treating cells with ACPS2C after synchronizing the cell cycle to the G1/S phase through a double thymidine block method.

[2] = Preliminary repeated toxicity test of ACP52C; format: in vivo, mouse; conditions: 100 mg/kg and 1000 mg/kg repeatedly administered twice
Experimental: A repeated toxicity test for the in vivo administration of ACP52CGK was conducted using female and male mice. […] As a full-scale experiment, after intravenous infusion of ACP52CGK for 28 days at 3-day intervals into the solvent group and high-dose group (100 mg/Kg) of 6 males and females each, the weight change, drinking water intake, and main histological analysis of organs, organ weight, hematological tests and blood biochemical tests were analyzed.

[3] = mouse, in vivo
Experimental: To analyze the in vivo half-life of ACP52CGK, Cy5-labeled ACP52CGK was injected into the tail vein of the mouse, and then the fluorescence intensity remaining in the mouse body was measured over time by live imaging process.

[4] = test system: lung cancer cell lines (A549, PC9, KCL22); assay: Immunoblot of CP2c pathway proteins in lung cancer cell lines treated with ACP52C; format: cell-based
Text: (§1) Since MDM2p60 is known to be a protein in which the C-terminal region of MDM2p90 comprising sites (S386, S395, and S407) phosphorylated by ATM is deleted, it was speculated that the MDM2 degradation would not be properly regulated by ACP52C treatment (FIG. 29, FIGS. 30a to 30c).

[5] = test system: CHK1/2, CDC25c, CDK1, cyclin B, caspases; assay: Expression of cell cycle and apoptosis marker proteins after ACP52C treatment; format: cell-based
[6] = test system: various cancer cell lines; assay: Anticancer effect of ACP52C in various carcinomas (GI50, FIG. 1); format: cell-based
Text: FIG. 1 illustrates GI50 values dependent upon ACP52C treatment in various cancer cell lines.
The selected peptide binds to CP2c and inhibits the formation of a transcription factor complex including CP2c (CP2c homotetramer and CP2c/CP2b/PIAS1 heterohexamer), thereby indirectly interfering with DNA binding of CP2c.

[7] = test system: A549 cell line in which MDM2 overexpression is chronically induced; assay: MTT assay in A549 cell line with chronically induced MDM2 overexpression; format: cell-based; conditions: doxycycline for 3 weeks, MDM2p90 overexpressed
Text: as §1

[8] = Half-life in solution containing 10% serum by HPLC; format: in vitro ADME; conditions: HPLC after removing serum proteins
Experimental: as §2

[9] = ELISA for antibody formation in sera of injected rabbits (immunogenicity); conditions: rabbit, in vivo
Text: To verify this, immunogenicity of ACP52CG and ACP52CK was directly tested in the process of deriving the final new drug candidate. Since the final candidate material might be a C-16 palmitoyl acid-conjugated ACP52C peptide, which is not different with ACP52CG and ACP52CK in terms of chemical composition, it was decided to analyze whether antibodies were formed on ACP52CG and ACP52CK. […] Therefore, it was concluded that the final candidate material (ACP52CGK) would also not show immunogenicity in the human body (FIG. 21).

[10] = ACP52C-induced G2/M phase arrest

**Q.** Which “half-life in mouse blood” value [1] does the source give for `CC(=O)N[C@@H](CC(N)=O)C(=O)N[C@@H](Cc1ccc(O)cc1)C(=O)N1CCC[C@H]1C(=O)N[C@@H](CCC(N)=O)C(=O)N[C@@H](CCCNC(=N)N)C(=O)N1CCC[C@H]1C(=O)N[C@@H](CS)C(=O)N[C@@H](CCCNC(=N)N)C(=O)NCC(=O)N[C@@H](CC(=O)O)C(=O)N[C@@H](CCCCN)C(=O)NCC(=O)N1CCC[C@H]1C(=O)N[C@@H](CC(=O)O)C(=O)N[C@@H](CS)C(N)=O` [ACP52C] (Ac-NYPQRPCRGDKGPDC-NH2) here?
**A.** about 2 hours

**Q.** And the “cell cycle effect (FACS)” value (cell cycle (G2/M, subG1); cell line synchronized to G2/M phase with thymidine/nocodazole)?
**A.** the cell cycle was arrested at the subG1 phase and cell death was induced

**Q.** What about the “cell cycle effect (FACS)” value (cell cycle (G2/M, subG1); cells synchronized to G1/S phase by double thymidine block) of the same molecule?
**A.** cell cycle arrest at the G2/M phase

**Q.** And the “liver toxicity or adverse effect on major organs” value [2]?
**A.** any liver toxicity or adverse effect on major organs was not observed

**Q.** And the survival [2]?
**A.** all the mice survived

**Q.** What about the “presence in cancer tissues after injection” value [3] of the same molecule?
**A.** observed in cancer tissues even 5 days after injection

**Q.** And the “expression of MDM2 (p90 and p60)” value [4]?
**A.** no decrease in the expression

**Q.** What about the “expression of YY1” value [4] of the same molecule?
**A.** decreased

**Q.** And the “expression of p53, p63 and p73” value [4]?
**A.** did not show any change

**Q.** What about the “cell death induction mechanism” value [5] of the same molecule?
**A.** apoptosis via activation of caspases

**Q.** And the “expression of CDC25c, CDK1, and cyclin B proteins” value [5, 10]?
**A.** decreased expression of CDC25c, CDK1, and cyclin B proteins

**Q.** And the “expression of CHK1/2 protein” value [5, 10]?
**A.** increased expression of CHK1/2 protein

**Q.** What about the “growth inhibition and cell death efficacy” value [6] of the same molecule?
**A.** cancer cell-specific growth inhibition and cell death efficacy

**Q.** What about the “induction of cell death” value [7] of the same molecule?
**A.** cell death was induced from the second week

**Q.** And the “degradation in solution containing 10% serum” value [8]?
**A.** not degraded at all until 24 hours

**Q.** And the “immune response of sera from rabbits injected with ACP52CG and ACP52CK three times (ELISA)” value [9]?
**A.** did not induce immune responses
